Reference: patent publication US5547962A, “5-amino-8-methyl-7-pyrrolidinylquinoline-3-carboxylic acid derivative” (priority 1993, dated 1996)
In brackets after ≈: the same amount, converted by molar mass. Where two headings read alike, the source gives them in different places.

What was measured:
[1] = system: male ICR mice; assay: Convulsions, intraperitoneal (i.p.) administration with fenbufen; conditions: 100 mg/kg i.p., fenbufen 100 mg/kg orally
Experimental: Thirty minutes later, they were injected intraperitoneally with the test compounds at a dose of 100 mg/kg. Thereafter, the onset of convulsions was recorded.

[2] = system: CHL cells; assay: Chromosomal aberration test with a Chinese hamster lung cell line (CHL); assay type: cell-based; conditions: for Chromosomal aberration: 3 μg/ml
Experimental: The chromosomal aberration test was conducted with a Chinese hamster lung cell line (CHL). 2-(2-Furyl)-3-(5-nitro-2-furyl)acrylamide was used as a positive control. Cells treated with the test compounds were cultured for 6 h at 37° C. in 5% CO2 -humidified air. Following the 6 h treatment the cells were washed. Fresh medium was added to the washed cells and they were cultured for a further 18 h. Colcemide was added to the cultures 2 h before the fixation of chromosome preparation, in order to collect metaphase cells.

[3] = system: Male Wistar rats; assay: Convulsions, intracerebroventricular (i.c.v.) administration with fenbufen; assay type: in vivo, rat; conditions: 20 μg i.c.v., fenbufen 50 mg/kg i.p.
Experimental: Male Wistar rats weighing 180-220 g were anesthetized with sodium pentobarbital (45 mg/kg, i.p.) and fixed in a stereotaxic apparatus. For the intracerebroventricular injection, a 0.6 mm diameter stainless steel guide cannula was implanted in each rat, being positioned 1.5 mm above the left lateral cerebroventricle (A: 6.2, R: 1.0, H: +1.0), according to the atlas of De Groot (1959). The guide cannula was fixed with dental cement on the skull and it was closed with a 0.3 mm diameter stainless steel stylet. To prevent infection, 10,000 units of potassium penicillin G were injected intramuscularly. The rats were allowed a few days to recover from the surgery.
For the measurement of convulsions, 30 min after intraperitoneal injection of 50 mg/kg of fenbufen, 20 μg of the test compounds was given through a 0.3 mm diameter of stainless steel cannula with a polyethylene catheter, which was 1.5 mm longer than the guide cannula in order to be inserted into the […] cerebroventricle (H: +1.0). […] The position of the intracerebroventricular cannula was confirmed by the injection of 10 μl of 1% evans blue followed by sectioning of the brain of each rat which had been used in the experiment.

[4] = system: Male Hartley guinea pigs; assay type: in vivo; conditions: 10 mg/kg i.v.; for phototoxicity, in words: UVA; for Phototoxicity: number of animals with erythemas/number of animals tested: UVA 90 minutes, 24 h after irradiation
Experimental: Male Hartley guinea pigs were intravenously administered test compounds at a dose of 10 mg/kg, and immediately exposed to UVA on their backs for 90 minutes.

[5] = system: polychromatic erythrocytes (PCEs); assay: Micronucleus test, bone marrow of mice; assay type: in vivo, BDF 1 mice; conditions: percent of the number of MNPCEs per 1,000 PCEs; 250 mg/kg i.p., 24 h
Experimental: Nine-week-old male BDF 1 mice were used in this test. The test compounds were injected intraperitoneally with a dose of 250 mg/kg. After 24 h mice were sacrificed and the bone marrow of the femur was collected. Bone marrow smears were fixed on the slides with methanol and stained with Giemsa according to the usual method. For each animal, the number of micronucleated polychromatic erythrocytes (MNPCEs) per 1,000 polychromatic erythrocytes (PCEs) was counted under the microscope. Cyclophosphamide was used as a positive control.

[6] = system: K. pneumoniae HNR858; assay: Antibacterial activity, MIC by agar dilution; assay type: cell-based; conditions: Klebsiella pneumoniae, clinically isolated strain, gram -
Text: (§1) The strains employed were as follows:
(§2) Klebsiella pneumoniae (K. pneumoniae)

[7] = system: K. pneumoniae HNR828; assay: Antibacterial activity, MIC by agar dilution; assay type: cell-based; conditions: Klebsiella pneumoniae, clinically isolated strain, gram -
Text: as §1, §2

[8] = system: K. pneumoniae PCI-602; assay: Antibacterial activity, MIC by agar dilution; assay type: cell-based; conditions: Klebsiella pneumoniae, PCI602; laboratory standard strain, gram -
Text: as §1, §2

[9] = system: K. pneumoniae HNR869; assay: Antibacterial activity, MIC by agar dilution; assay type: cell-based; conditions: Klebsiella pneumoniae, clinically isolated strain, gram -
Text: as §1, §2

[10] = system: E. cloacae HNR1946; assay: Antibacterial activity, MIC by agar dilution; assay type: cell-based; conditions: Enterobacter cloacae, clinically isolated strain, gram -
Text: as §1
(§3) Enterobacter cloacae (E. cloacae)

[11] = system: E. cloacae 963; assay: Antibacterial activity, MIC by agar dilution; assay type: cell-based; conditions: Enterobacter cloacae, laboratory standard strain, gram -
Text: as §1, §3

[12] = system: E. cloacae HNR1941; assay: Antibacterial activity, MIC by agar dilution; assay type: cell-based; conditions: Enterobacter cloacae, clinically isolated strain, gram -
Text: as §1, §3

[13] = system: E. cloacae HNR1939; assay: Antibacterial activity, MIC by agar dilution; assay type: cell-based; conditions: Enterobacter cloacae, clinically isolated strain, gram -
Text: as §1, §3

[14] = system: S. marcescens HNR1544; assay: Antibacterial activity, MIC by agar dilution; assay type: cell-based; conditions: Serratia marcescens, clinically isolated strain, gram -
Text: as §1
(§4) Serratia marcescens (S. marcescens)

[15] = system: S. marcescens IAM 1184; assay: Antibacterial activity, MIC by agar dilution; assay type: cell-based; conditions: Serratia marcescens, IAM1184; laboratory standard strain, gram -
Text: as §1, §4

[16] = system: S. marcescens HNR1767; assay: Antibacterial activity, MIC by agar dilution; assay type: cell-based; conditions: Serratia marcescens, clinically isolated strain, gram -
Text: as §1, §4

[17] = system: S. marcescens HNR1792; assay: Antibacterial activity, MIC by agar dilution; assay type: cell-based; conditions: Serratia marcescens, clinically isolated strain, gram -
Text: as §1, §4

[18] = system: E. coli NIHJ JC-2; assay: Antibacterial activity, MIC by agar dilution; assay type: cell-based; conditions: Escherichia coli, NIHJJC2; laboratory standard strain, gram -
Text: as §1
Escherichia coli (E. coli)

[19] = system: A. calcoaceticus HNR916; assay: Antibacterial activity, MIC by agar dilution; assay type: cell-based; conditions: Acinetobacter calcoaceticus, clinically isolated strain, gram -
Text: as §1
(§5) Acinetobacter calcoaceticus (A. calcoaceticus)

[20] = system: A. calcoaceticus HNR904; assay: Antibacterial activity, MIC by agar dilution; assay type: cell-based; conditions: Acinetobacter calcoaceticus, clinically isolated strain, gram -
Text: as §1, §5

[21] = system: A. calcoaceticus HNR939; assay: Antibacterial activity, MIC by agar dilution; assay type: cell-based; conditions: Acinetobacter calcoaceticus, clinically isolated strain, gram -
Text: as §1, §5

[22] = system: E. faecalis HPC984; assay: Antibacterial activity, MIC by agar dilution; assay type: cell-based; conditions: Enterococcus faecalis, clinically isolated strain, gram +
Text: as §1
(§6) Enterococcus faecalis (E. faecalis)

[23] = system: E. faecalis HPC948; assay: Antibacterial activity, MIC by agar dilution; assay type: cell-based; conditions: Enterococcus faecalis, clinically isolated strain, gram +
Text: as §1, §6

[24] = system: E. faecalis HPC975; assay: Antibacterial activity, MIC by agar dilution; assay type: cell-based; conditions: Enterococcus faecalis, clinically isolated strain, gram +
Text: as §1, §6

[25] = system: S. aureus HPC308; assay: Antibacterial activity, MIC by agar dilution; assay type: cell-based; conditions: Staphylococcus aureus, clinically isolated strain, gram +
Text: as §1
(§7) Staphylococcus aureus (S. aureus)

[26] = system: S. aureus HPC527; assay: Antibacterial activity, MIC by agar dilution; assay type: cell-based; conditions: Staphylococcus aureus, clinically isolated strain, gram +
Text: as §1, §7

[27] = system: S. aureus HPC292; assay: Antibacterial activity, MIC by agar dilution; assay type: cell-based; conditions: Staphylococcus aureus, clinically isolated strain, gram +
Text: as §1, §7

[28] = system: S. aureus FDA 209P JC-1; assay: Antibacterial activity, MIC by agar dilution; assay type: cell-based; conditions: Staphylococcus aureus, FDA209P; laboratory standard strain, gram +
Text: as §1, §7

O=C(O)c1cn(C2CC2)c2cc(N3CCNCC3)c(F)cc2c1=O [Ciprofloxacin, ciprofloxacin]
Convulsions i.p.: number of animals with convulsions/number of animals tested [1]: 3/6 | Frequency of chromosomal aberration ([2]; Table 5-A, CHL cells, 100 μg/ml): - (<10%) | Convulsions i.c.v.: number of animals with convulsions/number of animals tested [3]: 3/3

Cc1c(N2CC[C@H](N)C2)c(F)cc2c(=O)c(C(=O)O)cn(C3CC3)c12 [Reference Compound F, 7-((S)-3-amino-1-pyrrolidinyl)-1-cyclopropyl-6-fluoro-1,4-dihydro-8-methyl-4-oxoquinoline-3-carboxylic acid]
toxicity (chromosomal aberration), in words [2]: observed | phototoxicity, in words [4]: observed | Phototoxicity: number of animals with erythemas/number of animals tested [4]: 4/5

O=P1(N(CCCl)CCCl)NCCCO1 (stereo not shown) [Cyclophosphamide, reference compound]
Incidence of MNPCEs [5]: 2.9%

Cl.Nc1c(F)c(N2C[C@@H](N)C3(CC3)C2)cc2c1c(=O)c(C(=O)O)cn2C1CC1 [Reference Compound B, 5-amino-7-((S)-7-amino-5-azaspiro[2.4]hept-5-yl)-1-cyclopropyl-6-fluoro-1,4-dihydro-4-oxoquinoline-3-carboxylic acid hydrochloride]
Convulsions i.p.: number of animals with convulsions/number of animals tested [1]: 0/6 | Chromosomal aberration ([2]; Table 1, CHL cells): + (10-20%) | Chromosomal aberration ([2]; Table 2, CHL cells): + (10-20%) | Chromosomal aberration ([2]; Table 3, CHL cells): + (10-20%) | Chromosomal aberration ([2]; Table 7, CHL cells): + (10-20%) | toxicity (chromosomal aberration), in words ([2]; comparison to Tables 7 and 8): observed | death of CHL cells ([2]; treatment with 100 μg/ml): all cells died | phototoxicity, in words [4]: observed | Phototoxicity: number of animals with erythemas/number of animals tested [4]: 3/5

Cc1c(N2C[C@@H](N)[C@@H](C)C2)c(F)c(N)c2c(=O)c(C(=O)O)cn(C3CC3)c12 (relative stereo) [Example 14, 5-Amino-7-(cis-3-amino-4-methyl-1-pyrrolidinyl)-1-cyclopropyl-6-fluoro-1,4-dihydro-8-methyl-4-oxoquinoline-3-carboxylic acid]
MIC [6]: 0.2 µg/mL (≈ 0.534 µM) | MIC [7]: 3.13 µg/mL (≈ 8.36 µM) | MIC [8]: 0.006 µg/mL (≈ 0.016 µM) | MIC [9]: 1.56 µg/mL (≈ 4.17 µM) | MIC [10]: 0.2 µg/mL (≈ 0.534 µM) | MIC [11]: 0.05 µg/mL (≈ 0.134 µM) | MIC [12]: 6.25 µg/mL (≈ 16.7 µM) | MIC [13]: 0.2 µg/mL (≈ 0.534 µM) | MIC [14]: 0.05 µg/mL (≈ 0.134 µM) | MIC [15]: 0.2 µg/mL (≈ 0.534 µM) | MIC [16]: 6.25 µg/mL (≈ 16.7 µM) | MIC [17]: 3.13 µg/mL (≈ 8.36 µM) | MIC [18]: 0.012 µg/mL (≈ 0.032 µM) | MIC [19]: 0.025 µg/mL (≈ 0.0668 µM) | MIC [20]: 3.13 µg/mL (≈ 8.36 µM) | MIC [21]: 0.2 µg/mL (≈ 0.534 µM) | MIC [22]: 0.2 µg/mL | MIC [23]: 0.39 µg/mL | MIC [24]: 1.56 µg/mL | MIC [25]: 0.39 µg/mL | MIC [26]: 0.012 µg/mL | MIC [27]: 1.56 µg/mL | MIC [28]: 0.012 µg/mL | Phototoxicity: number of animals with erythemas/number of animals tested [4]: 0/5
